Laboratory results reported in patent US9062027B2, “Carboxamide compounds and their use as calpain inhibitors V” (AbbVie Deutschland GmbH & Co. KG, priority 2010, dated 2015).

How the values were obtained:
[1] = In-vivo pharmacokinetics and metabolite to parent ratio in plasma of cynomolgus monkeys; conditions: cynomolgus monkey, female cynomolgus monkeys, 3 mg/kg oral versus 1 mg/kg intravenous
Method: The tested compounds were prepared as a solution for either intravenous or oral administration to groups of female cynomolgus monkeys. For intravenous dosing, the compounds were prepared in a 10% DMSO/PEG-400 vehicle at a concentration of 2 mg/ml. For oral dosing, the compounds were prepared in a lipid based vehicle at a concentration of 3 mg/ml. Groups of three monkeys received either a 1 mg/kg (0.5 ml/kg) intravenous dose or a 3 mg/kg (1 ml/kg) oral dose. The intravenous dose was administered as a slow bolus in a saphenous vein; the oral dose was administered by gastric intubation and was followed by ˜5 ml water. […] The samples were reconstituted with an aliquot of mobile phase, followed by quantification by HPLC-MS/MS. Standard curves for both parent and the selected metabolites were prepared from authentic standards in blank monkey plasma; standards were analyzed simultaneously with the samples. The plasma concentration of each sample was calculated by least squares linear regression analysis of the peak area ratio (parent or metabolite/internal standard) of the spiked plasma standards versus concentration.
Peak plasma concentrations (Cmax) and the time to peak plasma concentration (Tmax) were read directly from the plasma concentration data for each monkey. […] The apparent total plasma clearance (CLp) was calculated by dividing the administered dose by the AUC0-inf. […]

[2] = molecular target: T1, calpain-I (Homo sapiens, UniProt P07384); test: Calpain I enzyme inhibition in vitro (kinetic fluorescence assay); type: biochemical; conditions: apparent Ki from IC50 by Cheng-Prussoff; calpain-I from human erythrocytes, pH 7.3
T1 construct: calpain-I—isolated from human erythrocytes; purchased Calbiochem 208713; host or cells: human erythrocytes (native tissue isolate)
T1 sequence (P07384 1-714): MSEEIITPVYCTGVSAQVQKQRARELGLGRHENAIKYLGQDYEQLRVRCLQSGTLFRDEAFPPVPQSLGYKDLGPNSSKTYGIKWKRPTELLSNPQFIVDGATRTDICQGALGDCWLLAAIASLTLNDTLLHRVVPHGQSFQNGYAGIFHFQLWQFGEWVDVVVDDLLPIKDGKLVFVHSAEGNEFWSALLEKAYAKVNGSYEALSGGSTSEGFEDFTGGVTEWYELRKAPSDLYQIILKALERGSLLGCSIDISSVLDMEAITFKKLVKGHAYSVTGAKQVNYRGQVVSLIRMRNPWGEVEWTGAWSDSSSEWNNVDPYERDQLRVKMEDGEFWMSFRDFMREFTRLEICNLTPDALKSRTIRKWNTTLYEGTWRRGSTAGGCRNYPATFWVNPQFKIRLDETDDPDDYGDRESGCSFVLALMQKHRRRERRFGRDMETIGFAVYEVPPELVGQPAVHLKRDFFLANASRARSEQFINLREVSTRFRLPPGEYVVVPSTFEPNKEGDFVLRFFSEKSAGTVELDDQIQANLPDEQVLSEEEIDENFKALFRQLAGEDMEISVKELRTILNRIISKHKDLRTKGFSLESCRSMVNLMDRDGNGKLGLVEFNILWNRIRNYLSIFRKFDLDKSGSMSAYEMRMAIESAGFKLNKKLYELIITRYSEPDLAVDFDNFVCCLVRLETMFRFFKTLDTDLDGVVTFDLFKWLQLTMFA
T1 sequence (P04632 1-268 partner): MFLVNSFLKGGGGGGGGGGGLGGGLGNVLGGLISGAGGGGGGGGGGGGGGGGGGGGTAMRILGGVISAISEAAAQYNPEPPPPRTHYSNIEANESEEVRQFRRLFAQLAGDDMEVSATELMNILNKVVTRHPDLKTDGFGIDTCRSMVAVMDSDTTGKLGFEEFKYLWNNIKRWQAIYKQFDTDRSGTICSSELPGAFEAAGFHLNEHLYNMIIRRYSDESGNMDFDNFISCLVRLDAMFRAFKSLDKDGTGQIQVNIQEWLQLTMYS
Method: Testing for blockade of the corresponding enzymic activities was carried out by means of kinetic fluorescence assays (excitation 390 nm, emission 460 nm).
Apparent Ki values were calculated from the experimentally determined IC50 values by the Cheng-Prussoff relation assuming a reversible competitive enzyme inhibition.
20 nM calpain-I—isolated from human erythrocytes (Calbiochem #208713), 100 μM Suc-Leu-Tyr-AMC (Bachem #I-1355) as substrate in buffer with 62 mM imidazole, 0.3 mM CaCl2, 0.10% CHAPS, 0.05% BSA, 1 mM DTT at pH 7.3 and room temperature.

| SMILES | Ki [2] [µM] | also measured |
| --- | --- | --- |
| NC(=O)C(=O)C(Cc1ccccc1)NC(=O)c1cccnc1-n1cc2ccccc2n1 (stereo not drawn) [comp. ex., N-(3-Amino-1-benzyl-2,3-dioxopropyl)-2-(2H-indazol-2-yl)nicotinamide] | – | bioavailability [1]: 3% |
| CONC(=O)C(=O)C(Cc1ccccc1)NC(=O)c1cccnc1-n1cc2cc(F)ccc2n1 (stereo not drawn) [Example 7, 2-(5-Fluoro-2H-indazol-2-yl)-N-[4-(methoxyamino)-3,4-dioxo-1-phenyl-2-butanyl]-3-pyridinecarboxamide] | < 0.25 | – |
| CONC(=O)C(=O)C(Cc1ccccc1)NC(=O)c1cccnc1-n1cc2ccc(F)cc2n1 (stereo not drawn) [Example 8, 2-(6-Fluoro-2H-indazol-2-yl)-N-[4-(methoxyamino)-3,4-dioxo-1-phenyl-2-butanyl]-3-pyridinecarboxamide] | 0.25 to 0.4 | – |
| O=C(NC1CC1)C(=O)C(Cc1ccccc1)NC(=O)c1cccnc1-n1cc2ccccc2n1 (stereo not drawn) [Example 1, N-[4-(Cyclopropylamino)-3,4-dioxo-1-phenylbutan-2-yl]-2-(2H-indazol-2-yl)nicotinamide] | 0.4 to 0.8 | – |
| CONC(=O)C(=O)C(Cc1ccccc1)NC(=O)c1cccnc1-n1cc2ccccc2n1 (stereo not drawn) [Example 3, 2-(2H-Indazol-2-yl)-N-[4-(methoxyamino)-3,4-dioxo-1-phenyl-2-butanyl]nicotinamide] | < 0.25 | – |
| CONC(=O)C(=O)C(Cc1ccccc1)NC(=O)c1cccnc1-n1cc2ccc(C(F)(F)F)cc2n1 (stereo not drawn) [Example 9, N-[4-(Methoxyamino)-3,4-dioxo-1-phenyl-2-butanyl]-2-[6-(trifluoromethyl)-2H-indazol-2-yl]-3-pyridinecarboxamide] | < 0.25 | – |
| CCONC(=O)C(=O)C(Cc1ccccc1)NC(=O)c1cccnc1-n1cc2ccccc2n1 (stereo not drawn) [Example 4, N-[4-(Ethoxyamino)-3,4-dioxo-1-phenyl-2-butanyl]-2-(2H-indazol-2-yl)nicotinamide] | < 0.25 | – |
| O=C(NC1CC1)C(=O)C(Cc1ccccc1)NC(=O)c1cccnc1-n1cc2c(n1)CCCC2 (stereo not drawn) [Example 5, N-[4-(Cyclopropylamino)-3,4-dioxo-1-phenyl-2-butanyl]-2-(4,5,6,7-tetrahydro-2H-indazol-2-yl)nicotinamide] | 0.4 to 0.8 | – |
| CCNC(=O)C(=O)C(Cc1ccccc1)NC(=O)c1cccnc1-n1cc2ccccc2n1 (stereo not drawn) [Example 2, N-[4-(Ethylamino)-3,4-dioxo-1-phenyl-2-butanyl]-2-(2H-indazol-2-yl)nicotinamide] | – | Calpain activity (Ki(calpain)) [2]: ∘ |
